How the values were obtained:
TWIST1 = assay: Western blotting of TWIST1 during cisplatin exposure; format: cell-based, human; conditions: Ov8GFP-TWIST1 cells; 5 μM cisplatin over 24 hr
Protocol: (§1) Western blotting. Cells were pelleted and washed once with phosphate buffered saline (PBS), then lysed in RIPA buffer. Protein concentration was determined using a BCA assay (Thermo Fisher). Equal masses of protein were run on 4% stacking, 10% resolving polyacrylamide gels, and then transferred to PVDF membrane (GE Healthcare Bio-Sciences, Pittsburgh, PA) using the Trans-Blot SD Semi-Dry Transfer Cell (Bio-Rad). Membranes were blocked in dry milk dissolved in PBS with shaking for 1 hr at room temperature or overnight at 4° C. 3% BSA was used for blocking prior to select pAkt blots to reduce background signal. Primary and secondary antibodies were diluted as indicated below in 5% dry milk in PBS with 0.1-0.2% Tween-20. Incubation was performed at room temperature for one hr or overnight at 4° C. for primary, and at room temperature for one hr for secondary. Each antibody incubation was followed by five 5 min washes in PBS with 0.1% Tween-20. FemtoGlow HRP substrate (Michigan Diagnostics, Royal Oak, MI) and the Pxi4 chemiluminescent imager (Syngene, Frederick, MD) were used to acquire digital images. ECL 2 (Thermo Fisher) and Blue Devil Film (Genesee Scientific) were used to acquire film images. […] For select digital and film westerns, bands were quantified using GeneTools software from Syngene or Image Studio Lite from LiCor (Lincoln, NB), respectively, and normalized to β-Actin.

Akt = assay: Western blotting of total Akt during cisplatin exposure; format: cell-based, human
Protocol: as §1

Phospho Akt (Ser473) = assay: Western blotting of Akt phosphorylated at Ser 473 during cisplatin exposure; format: cell-based, human; conditions: 24 hr
Protocol: as §1

A2780R cells = assay: Sulphorhodamine B cell survival assay with cisplatin, A2780R; format: cell-based; conditions: without YTZ3-15-si494 treatment
Protocol: Sulphorhodamine B Cell Survival Assays. A2780R or Ovcar8-IP cells were plated in 6 well plates and allowed to adhere overnight. The following day, cells were transfected with siQ, si419, or si494 as described above—A2780R cells using YTZ3-15 and Ovcar8-IP cells using MSNs. After 48-72 hours, cells were transferred to 96 well plates at 5,000 cells per well and allowed to adhere overnight. The following day cells were treated with cisplatin at a series of concentrations (cells not treated with cisplatin served as controls). After 72 hours, cells were fixed in 10% trichloroacetic acid for 1 hour at 4° C., washed with water, and dried. Cells were stained in 0.4% sulphorhodamine B (SRB) in 1% acetic acid for 15 minutes at room temperature and then washed 3-4 times with 1% acetic acid until no further color was present in the wash. Any stray SRB on the walls of the wells was removed, and stained cells were dried for 10 minutes. SRB was solubilized in 10 mM Tris base and color intensity was quantified by absorbance at 570 nm. Each condition was normalized to its own untreated control.

Ovcar8-IP tumors = assay: Ovcar8-IP intraperitoneal tumor model in NSG mice, MSN-siRNA with or without cisplatin; format: in vivo
Protocol: Animal Studies. The animal studies conducted in these experiments were done in accordance with a protocol approved by the Institutional Animal Care and Use Committee at the City of Hope Beckman Research Institute. A total of 48 female NOD.Cg-Prkdc^scidIl2rg^tm1Wj1/SzJ (NSG) mice (The Jackson Laboratory, Bar Harbor, ME) were used. Ten week old (on average) mice were administered an intraperitoneal injection (IP) of 2.5×10^6 Ovcar8-IP cells in 200 μl of RPMI media. For all studies, mice were placed into four groups: MSN-siQ, MSN-siQ+cisplatin, MSN-si419H, and MSN-si419H+cisplatin (n=4 or n=8). Previous reports show no cellular uptake without MSNs^14, thus a siRNA-only group was not added to this study.
Bioluminescent imaging of mice (using Xenogen IVIS 100 biophotonic imaging system, STTARR, Toronto, Ontario, Canada) commenced seven days after injection of tumor cells in order to ensure engraftment, and continued once a week for four weeks. Mice were given a 100 μl IP injection of 20 mg/ml D-Luciferin (PerkinElmer, Waltham, MA). Ten minutes after the D-luciferin injection, mice were anesthetized with isoflurane (2%-5%) and placed in the biophotonic imager, and images were taken within two minutes. An alfalfa-free version of the regular rodent diet (alfalfa-free CA-1) was administered to the siQ mice to prevent autofluorescence from the regular diet.
IP injections of MSN+siRNA (siQ fluorescently labeled with ALEXAFLUOR® 647 or si419H) were conducted one week after the inoculation of Ovcar8-IP cells and done once or twice per week for a total of four weeks. Mice received 105 μl of 500 ng/μl MSN complexed with 15 μl of 10 μM siRNA per week, divided into one full or two half doses (n=4 and n=8, respectively). This is equivalent to […] MSN/week. Weekly 3 mg/kg IP cisplatin injections were given starting two weeks after initial inoculation of cells.
At completion of the experiment, all animals were euthanized via CO2 asphyxiation. […]
Statistics. All in vivo data was analyzed using one-way ANOVA with correction for multiple comparisons, comparing all groups to MSN-siQ treatment group. […]

Compound: N.N.[Cl][Pt][Cl] [cisplatin]
- increase in TWIST1 expression (TWIST1): up to 2.3 fold
- increase in Akt levels (Akt; Ov8GFP-TWIST1 cells, siQ, 5 μM cisplatin over 24 hr): 150%
- total Akt levels (Akt; Ov8GFP-sh492 cells, cisplatin over 24 hr): relatively constant
- increase in proportion of Akt phosphorylated at Ser 473 (Phospho Akt (Ser473); Ov8GFP-TWIST1 cells, siQ, 5 μM cisplatin, normalized to total Akt): 128%
- reduction in phosphorylated Akt (Phospho Akt (Ser473); Ov8GFP-sh492 cells, cisplatin): 63%
- IC50 (A2780R cells): ~200 µM
- reduction of metastasis incidence (number of disseminated masses) (Ovcar8-IP tumors; FIG. 21B): approximately 50%
- proportion of mice developing ascites (Ovcar8-IP tumors; n=4 per group): 2/4

Source: patent US11926826B2, “Twist signaling inhibitor compositions and methods of using the same” (City of Hope, priority 2016, dated 2024)
